Laboratory results published in paper PMC8035250 (ChemMedChem, 2021).
Values after ≈ are worked out from the molar mass of the structure shown.

What was measured:
[1] = ref 14b, cited from earlier work
osteoclastogenesis = assay: In vitro osteoclast differentiation assay; type: cell-based, mice; settings: 10 μM inhibitor, rM-CSF and RANKL, 5–7 d
[2] = previously reported; ref 14b; cited from earlier work
[3] = tested on: monocytes, MSCs, or mature osteoclasts; settings: even at a concentration of 10 μM; ref manuscript submitted; cited from earlier work
[4] = previously reported; ref 14b; cited from earlier work; remark: listed apart in the source
[5] = previously reported; ref 14b; cited from earlier work; remark: listed apart in the source
[6] = tested on: MDA-MB-231 breast cancer xenograft; settings: cited from earlier work
[7] = cited from earlier work

| SMILES | Solubility ([1]; converted from […] with MW 499.17 g/mol) | Solubility class in words ([1]; poor defined as <10 μg/mL or <20 μM) | Osteoclastogenesis level compared with control (osteoclastogenesis) | Rat microsome half-life [2] | Toxicity towards monocytes, MSCs, or mature osteoclasts [3] | Mouse microsome half-life [4] | Human microsome half-life [5] | MDA-MB-231 breast cancer xenograft growth [6] | Osteolytic damage ([6]; in vivo prevention study) | Creatine kinase (measure of muscle toxicity) [7] |
| --- | --- | --- | --- | --- | --- | --- | --- | --- | --- | --- |
| CNC(=O)[C@@H](NC(=O)c1ccc(-c2ccc(CSc3nc4c(c(=O)[nH]3)CCC4)c(F)c2)o1)C(C)C [RF036] | 7.74 µg/mL (≈ 15.5 µM) | poor solubility | 24% | 9 min | not due to the compound being toxic | 20 min | 12 min |  |  |  |
| COCCC1(Oc2ccc(Oc3ccc(-c4nc(-c5ccc(F)cc5)co4)cc3)cc2)C(=O)NC(=O)NC1=O [compound 28, 5-(4-{4-[4-(4-fluorophenyl)-1,3-oxazol-2-yl]phenoxy}phenoxy)-5-(2-methoxyethyl)-pyrimidine-2,4,6 (1H,3H,5H)-trione] |  |  |  |  |  |  |  | inhibited MDA-MB-231 breast cancer xenograft growth | significantly reduced osteolytic damage | did not cause an increase in creatine kinase |
